# Source: patent US12239643B2, “Therapeutic agent for inflammatory diseases, autoimmune diseases, fibrotic diseases, and cancer diseases” (MEIJI SEIKA PHARMA CO., LTD., priority 2018, dated 2025)
# How the values were obtained:
# [1] = system: substance P-induced pruritus behavior, ICR mice; experiment: Mouse pruritus model; assay type: in vivo; conditions: oral, substance P intradermally 2 hours after administration
# Experimental: Evaluation was carried out using male ICR mice (5 to 7 weeks of age). A micro magnet was embedded under the skin of both hind limbs of the mice in advance, and the hair on the back of the mouse neck was shaved. On the day of the test, the test compound was dissolved or suspended in 0.5% w/v methylcellulose (0.5% MC) and orally administered. Two hours after administration of the test compound, 50 μL of 300 nM substance P dissolved in saline was intradermally administered to the back of the mouse neck. The blank was a non-pruritus-induced group orally administered with 0.5% MC instead of the test compound and intradermally administered with saline instead of substance P, and the pruritus induction control was a group orally administered with 0.5% MC instead of the test compound. The pruritus measurement system for small animals, MicroAct II, automatically measured pruritus behavior for 30 minutes immediately after intradermal administration.
# [2] = system: bleomycin-induced pulmonary fibrosis, C57BL/6J mice; experiment: Mouse bleomycin model; assay type: in vivo; conditions: oral once a day for 14 days, day 21 after BLM administration, compared with nintedanib
# Experimental: Evaluation was carried out using female C57BL/6J mice (7 weeks of age). Bleomycin (BLM) at a concentration of 2 mg/kg was administered oropharyngeally under anesthesia to induce pulmonary fibrosis. Six days after BLM administration, the group was divided into experimental groups so as to achieve a uniform weight loss rate from the BLM administration day. The test compound dissolved or suspended in 0.5% w/v methylcellulose (0.5% MC) was orally administered (10 μL/g) at a concentration of 10 to 100 mg/kg once a day for 14 days from day 7 after the administration of BLM. On day 21 after BLM administration, blood was collected under anesthesia, and the lungs were fixed with a 10% neutral buffered formalin solution and treated for histological examination. To evaluate the degree of fibrosis, the concentration of serum surfactant protein D (SP-D) was measured by the ELISA method.
smiles,measurement,setting,value
"CC(C)(O)C(F)(F)Oc1ccc(-c2nccs2)c2oc(N3CC4CC(C3)N4)nc12 [Example 248, 1-((2-(3,6-Diazabicyclo[3.1.1]heptan-3-yl)-7-(thiazol-2-yl)benzo[d]oxazol-4-yl)oxy)-1,1-difluoro-2-methylpropan-2-ol]",scratching behavior (pruritus behavior for 30 minutes),[1],suppressed mouse scratching behavior at a lower concentration than apremilast
same,pulmonary fibrosis score,[2],equal to or lower than those of nintedanib
same,serum SP-D concentration,[2],equal to or lower than those of nintedanib
